pIC50: −log10 of the molar value. Counter-ions that a name gives are not always drawn.
Target: T1, MMP-2 (Homo sapiens, UniProt P08253)
T1 construct: made in house; host or cells: MMP-2-transfected p2AHT2 cells
T1 sequence (P08253 110-660): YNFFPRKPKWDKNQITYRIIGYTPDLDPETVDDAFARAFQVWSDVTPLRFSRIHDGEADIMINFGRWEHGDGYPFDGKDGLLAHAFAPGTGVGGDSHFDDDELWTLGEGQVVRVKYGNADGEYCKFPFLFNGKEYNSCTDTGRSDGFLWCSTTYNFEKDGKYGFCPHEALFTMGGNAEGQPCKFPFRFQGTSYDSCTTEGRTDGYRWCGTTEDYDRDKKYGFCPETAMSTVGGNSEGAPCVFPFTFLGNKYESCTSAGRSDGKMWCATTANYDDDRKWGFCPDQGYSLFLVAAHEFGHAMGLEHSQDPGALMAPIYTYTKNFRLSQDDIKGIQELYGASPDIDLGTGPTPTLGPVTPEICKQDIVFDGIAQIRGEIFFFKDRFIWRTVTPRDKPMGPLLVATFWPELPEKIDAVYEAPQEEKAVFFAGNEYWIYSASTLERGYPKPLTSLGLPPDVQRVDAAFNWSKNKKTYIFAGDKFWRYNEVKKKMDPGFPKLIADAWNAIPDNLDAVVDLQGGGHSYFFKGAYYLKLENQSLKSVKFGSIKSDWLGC
Experiment: In vitro MMP inhibition, IC50 determination (fluorogenic substrate I)
Assay type: biochemical
Conditions: values in parenthesis; 4 μM substrate I; room temperature
Experimental: Several hydroxamic acids and salts thereof were analyzed in in vitro assays to determine their ability to inhibit the MMP cleavage of peptide substrates. […] and IC50 constants were calculated from the assayed hydroxamic acid-MMP interactions.
Human recombinant MMP-1, MMP-2, MMP-9, MMP-13, and MMP-14 were used in this assay. All enzymes were prepared in Assignee's laboratories following usual laboratory procedures. Protocols for the preparation and use of these enzymes are available in the scientific literature. See, e.g., Enzyme Nomenclature (Academic Press, San Diego, Calif., 1992) (and the citations therein). See also, Freije et al., “Molecular cloning and expression of collagenase-3, a novel human matrix metalloproteinase produced by breast carcinomas,” J Biol. Chem., 269(24), 16766-16773 (1994).
The MMP-2 proenzyme was purified by gelatin Sepharose chromatography from MMP-2-transfected p2AHT2 cells provided by Dr. Gregory Goldberg of Washington University (St. Louis, Mo.).
All MMPs were activated using 4-aminophenylmercuric acetate (“APMA”, Sigma Chemical, St. Louis, Mo.) or trypsin. MMP-9 also was activated using human recombinant MMP-3 (purified in Assignee's laboratory following standard cloning and purification techniques).
Two fluorogenic, methoxycoumarin-containing polypeptide substrates were used in the MMP inhibition assays: [drawing 427] Here, “Dpa” is 3-(2,4-dinitrophenyl)-L-2,3-diaminopropionyl group, and “MCA” is 7-methoxycoumarin-4-yl acetyl. Substrate (I) was purchased from Baychem (Redwood City, Calif.), and substrate II was prepared Assignee's laboratory. Substrate I was used in the IC50 determination assays, while substrate II was used in the Ki determination assays. In the absence of MMP inhibitory activity, either substrate is cleaved at the Gly-Leu peptide bond. This cleavage separates the highly fluorogenic peptide from the 2,4-dinitrophenyl quencher, thus resulting in increase of fluorescent intensity.
The stock solutions of the assayed hydroxamic acids (or salts thereof) were prepared in 1% dimethyl sulfoxide (DMSO). These stock solutions were diluted in Buffer A (100 mM Tris-HCl, 100 mM NaCl, 10 mM CaCl2, 0.05% polyoxyethylene 23 lauryl ether, pH 7.5) to obtain solutions with different hydroxamic acid concentrations, i.e., assay solutions with different concentrations of the assayed MMP inhibitory compound. The experiment controls contained the same amount of Buffer A/DMSO as the assayed sample, but contained no hydroxamic acid (or salt thereof).
The assays from which the IC50 determinations were made were performed as follows. The MMPs were activated with either trypsin or APMA (4-aminophenylmercuric acetate, Sigma Chemical, St. Louis, Mo.). The assayed hydroxamic acid samples were incubated in Microfluor™ White Plates (Dynatech, Chantilly, Va.) and analyzed on a Perkin Elmer L550 plate reader (Norwalk, Conn.). The excitation wavelength was 328 nm, and the emission wavelength—415 nm. All samples (assayed hydroxamic acids and controls) were incubated in separate plates at room temperature in the presence of 4 μM of MMP substrate (I). As stated in the previous paragraph, samples containing varying concentrations of the same assayed hydroxamic acid were prepared. Inhibition was measured as a reduction in fluorescent intensity as a function of MMP inhibitor concentration.
The above protocols were used to determine IC50 constants and Ki values for the compounds in Examples 1-27 above. All values in Table 2 are given in nM units. The IC50 measurements are in parenthesis.

SMILES | pIC50
CCCCc1ccc(N2CCN(S(=O)(=O)C3(C(=O)NO)CCN(CCOC)CC3)CC2)cc1 [Example 5, 4-{[4-(4-butylphenyl)piperazin-1-yl]sulfonyl}-N-hydroxy-1-(2-methoxyethyl)piperidine-4-carboxamide Dihydrochloride] | > 10.00
CCCCCc1ccc(C2CCN(S(=O)(=O)C3(C(=O)NO)CCN(CCOC)CC3)CC2)cc1 [Example 15, N-hydroxy-1-(2-methoxyethyl)-4-{[4-(4-pentylpheyl)piperidin-1-yl]sulfonyl}piperidine-4-carboxamide Hydrochloride] | 10.00

— patent US20050209278A1, “Piperidinyl- and piperazinyl-sulfonylmethyl hydroxamic acids and their use as protease inhibitors” (priority 2002, published 2005)
